Experimental data taken from patent US8778897B2, “Method of treatment using α-1-adrenergic agonist compounds” (The Regents of the University of California, priority 2008, dated 2014).

Experiments:
[1] = tested on: α1A receptors; conditions: cited from earlier work
[2] = Dose finding study, daily tail cuff blood pressure in mice; format: in vivo
Method: (§1) The alpha-1-adrenergic receptor agonist, A61603, was administered to 11 week-old wild type male C57BI6J mice using an osmotic minipump. Cardiomyopathy was induced with a single dose of doxorubicin (25 mg/kg) administered intraperitoneally. Blood pressure was measured by tail cuff, activated (phosphorylated) P-ERK by immunoblot, heart mRNA by RT-qPCR, fractional shortening (FS) by echocardiography (ECHO), myocyte necrosis by serum creatine kinase (CK), apoptosis by TUNEL stain, and fibrosis by Sirius red stain.
In a dose finding study, (0.01-100 μg/kg/day),
A61603 at 10 ng/kg/day over 7 days had no effect on daily tail cuff blood pressure, as evidenced by the average blood pressure of the control, vehicle treated mice of 115±4 mmHg and the average blood pressure of the mice treated with A61603 of 119±4 mmHg.

[3] = tested on: wild type male C57BI6J mice; experiment: Doxorubicin-induced cardiomyopathy in wild type mice; format: in vivo; conditions: single doxorubicin 25 mg/kg i.p., A61603 10 ng/kg/day or vehicle infused over 7 days; for Fibrosis area (%): Sirius red; for Fibrosis area (%) / TUNEL-positive / ECHO FS (%) / Serum CK (U/L): mean ± SE; for TUNEL-positive: apoptosis; for Survival 7 days (%): untreated 100
Method: as §1
A61603 at the non-hypertensive dose of 10 ng/kg/day or vehicle was infused over 7 days after a single injection of doxorubicin.

[4] = target: T1, α1A receptor (Mus musculus, UniProt P97718); conditions: wild-type mice, infusion; cited from earlier work
T1 construct: host or cells: wild-type mice (whole animal, endogenous receptor)
T1 sequence (P97718 1-466): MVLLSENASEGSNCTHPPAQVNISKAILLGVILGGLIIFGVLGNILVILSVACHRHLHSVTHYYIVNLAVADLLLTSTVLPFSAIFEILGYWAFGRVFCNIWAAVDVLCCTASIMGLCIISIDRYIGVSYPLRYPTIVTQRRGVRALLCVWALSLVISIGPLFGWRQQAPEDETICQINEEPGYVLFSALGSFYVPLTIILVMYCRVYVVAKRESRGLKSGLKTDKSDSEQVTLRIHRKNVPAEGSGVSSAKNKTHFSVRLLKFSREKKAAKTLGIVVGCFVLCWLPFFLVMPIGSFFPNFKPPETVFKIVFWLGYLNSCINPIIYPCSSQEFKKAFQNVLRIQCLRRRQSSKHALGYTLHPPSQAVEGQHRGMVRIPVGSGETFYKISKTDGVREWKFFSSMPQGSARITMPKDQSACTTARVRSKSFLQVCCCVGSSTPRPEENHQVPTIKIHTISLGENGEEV

[5] = tested on: alpha-1A adrenergic receptor; experiment: Doxorubicin-induced cardiomyopathy in alpha-1A-subtype knock-out mice; format: in vivo
[6] = tested on: α1A-AR; conditions: α1A-AR knock-out mice, infusion; cited from earlier work

SMILES	potency at α1A receptors relative to α1B or α1D sites [1]	potency as α1A AR agonist compared with phenylephrine ([1]; versus non-selective α1 AR agonist phenylephrine)	effect on daily tail cuff blood pressure ([2]; 10 ng/kg/day over 7 days)	average blood pressure ([2]; 10 ng/kg/day over 7 days, osmotic minipump, tail cuff, vehicle control 115±4 mmHg) [mmHg]	effect on blood pressure at higher doses ([2]; doses higher than 10 ng/kg/day (range 0.01-100 μg/kg/day))	Fibrosis area (%) [3] [%]	TUNEL-positive [3]	ECHO FS (%) [3] [%]	Serum CK (U/L) [3] [U/L]	Survival 7 days (%) [3] [%]	EC50 for increase of mean arterial pressure [4] [µg/kg]	increased mean arterial pressure (MAP) [4] [mm Hg]	increased mean arterial pressure (MAP) over basal [4] [%]	benefit of A61603 against doxorubicin cardiomyopathy ([5]; data not shown)	effect on mean arterial pressure [6]	apoptosis and mortality compared with wild-type mice ([5]; doxorubicin)
Br.CS(=O)(=O)Nc1c(O)ccc2c1CCCC2C1=NCCN1 (stereo not drawn) [A61603, N-[5-(4,5-Dihydro-1H-imidazol-2-yl)-2-hydroxy-5,6,7,8-tetrahydronaphthalen-1-yl]methanesulfonamide hydrobromide]	at least 35 fold	more potent	no effect	119±4	increased blood pressure	25 ± 1	0.5 ± 0.1	67 ± 1	571 ± 67	100	0.3	35	25	no beneficial result	no effect	
COc1cccc2c1C(=O)c1c(O)c3c(c(O)c1C2=O)C[C@@](O)(C(=O)CO)C[C@@H]3O[C@H]1C[C@H](N)[C@H](O)[C@H](C)O1 [Doxorubicin, doxorubicin, reference compound]						32 ± 1	1.3 ± 0.2	55 ± 3	1204 ± 98	60						increased apoptosis and mortality
